Test results from PubChem BioAssay (NCI).
Where “and” joins values, the source holds several entries; their conditions need not be identical. Identical values can stand only once.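 Results reflect a 48-hour exposure of cells in 96-well plates to compound at five concentrations. GI50: concentration for 50% inhibition of growth. Definition used: TGI = concentration required for complete inhibition of growth.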

Legend:
Assay in all cases: NCI-60 cell line screen, 48 h
HCC-2998 colon = system: HCC-2998 colon
SK-OV-3 ovarian = system: SK-OV-3 ovarian
SW-620 colon = system: SW-620 colon
PC-3 prostate = system: PC-3 prostate
ACHN renal = system: ACHN renal
SK-MEL-2 melanoma = system: SK-MEL-2 melanoma
SR leukemia = system: SR leukemia
BT-549 breast = system: BT-549 breast
NCI-H23 lung = system: NCI-H23 lung
SF-539 CNS = system: SF-539 CNS

CN(C)c1ccc2nc3ccc(=[N+](C)C)cc-3oc2c1
GI50 (HCC-2998 colon): 3560 nM | TGI (HCC-2998 colon): > 100000 nM | GI50 (SK-OV-3 ovarian): 6650 nM | TGI (SK-OV-3 ovarian): 45200 nM | GI50 (SW-620 colon): 1740 nM | TGI (SW-620 colon): > 100000 nM | GI50 (PC-3 prostate): 520 nM | TGI (PC-3 prostate): > 100000 nM | GI50 (ACHN renal): 7280 nM | TGI (ACHN renal): 52400 nM | GI50 (SK-MEL-2 melanoma): 2380 nM | TGI (SK-MEL-2 melanoma): 11100 nM | GI50 (SR leukemia): 2060 nM | TGI (SR leukemia): 23800 nM | GI50 (BT-549 breast): 11200 nM | TGI (BT-549 breast): 74200 nM | GI50 (NCI-H23 lung): 788 nM | TGI (NCI-H23 lung): 5600 nM | GI50 (SF-539 CNS): 707 nM | TGI (SF-539 CNS): 15400 nM

O=C(CCN1CCCC1)Nc1ccc2c(NCc3ccc(F)cc3)c3ccccc3nc2c1
GI50 (HCC-2998 colon): 485 nM | TGI (HCC-2998 colon): 2030 nM | GI50 (SK-OV-3 ovarian): 849 nM | TGI (SK-OV-3 ovarian): 3500 nM | GI50 (SW-620 colon): 353 nM | TGI (SW-620 colon): 1530 nM | GI50 (PC-3 prostate): 479 nM | TGI (PC-3 prostate): 1900 nM | GI50 (ACHN renal): 483 nM | TGI (ACHN renal): 1870 nM | GI50 (SK-MEL-2 melanoma): 1210 nM | TGI (SK-MEL-2 melanoma): 2700 nM | GI50 (SR leukemia): 349 nM | TGI (SR leukemia): 1720 nM | GI50 (BT-549 breast): 1200 nM | TGI (BT-549 breast): 2670 nM | GI50 (NCI-H23 lung): 413 nM | TGI (NCI-H23 lung): 1670 nM | GI50 (SF-539 CNS): 443 nM | TGI (SF-539 CNS): 1630 nM

CC1Oc2cc3c(-c4c(O)cc(O)c5c(O)c6c(cc45)OC(C)C(C)C6=O)c(O)cc(O)c3c(O)c2C(=O)C1C (centres undefined)
TGI (HCC-2998 colon): 1630 nM | TGI (SK-OV-3 ovarian): 1560 nM | TGI (SW-620 colon): 1520 nM | TGI (PC-3 prostate): 698 nM | TGI (ACHN renal): 1570 nM | TGI (SK-MEL-2 melanoma): 331 nM | TGI (SR leukemia): 429 nM | TGI (BT-549 breast): 775 nM | TGI (NCI-H23 lung): 756 nM | TGI (SF-539 CNS): 645 nM

CC[C@](C)(O)C(=O)O[C@H]1C(=O)O[C@@H]2C[C@H]3C(C)=CC(=O)[C@@H](O)[C@]3(C)[C@H]3[C@@]4(O)OC[C@]32[C@@H]1[C@@H](C)[C@H]4O
GI50 (HCC-2998 colon): 120 nM | TGI (HCC-2998 colon): 469 nM and 316 nM | GI50 (SK-OV-3 ovarian): 1340 nM | TGI (SK-OV-3 ovarian): 13900 nM and 4290 nM | GI50 (SW-620 colon): 216 nM | TGI (PC-3 prostate): 44500 nM | TGI (ACHN renal): 1690 nM | TGI (SK-MEL-2 melanoma): 644 nM and 217 nM | TGI (SR leukemia): 2550 nM | TGI (BT-549 breast): 6760 nM | GI50 (NCI-H23 lung): 50 nM | TGI (NCI-H23 lung): 532 nM and 136 nM | GI50 (SF-539 CNS): 14.1 nM | TGI (SF-539 CNS): 35.3 nM and 89.5 nM

COc1ccc(Cn2nc(-c3cc(OC)c(OC)c(OC)c3)c3c2CCc2cnoc2-3)cc1OC
GI50 (HCC-2998 colon): 5850 nM | TGI (HCC-2998 colon): > 100000 nM | GI50 (SK-OV-3 ovarian): 4360 nM | TGI (SK-OV-3 ovarian): 33000 nM | GI50 (SW-620 colon): 3980 nM | TGI (SW-620 colon): > 100000 nM | GI50 (PC-3 prostate): 3620 nM | TGI (PC-3 prostate): 65300 nM | GI50 (ACHN renal): 6120 nM | TGI (ACHN renal): > 100000 nM | GI50 (SK-MEL-2 melanoma): 6060 nM | TGI (SK-MEL-2 melanoma): > 100000 nM | GI50 (SR leukemia): 2670 nM | TGI (SR leukemia): > 100000 nM | GI50 (BT-549 breast): 5620 nM | TGI (BT-549 breast): > 100000 nM | GI50 (NCI-H23 lung): 3430 nM | TGI (NCI-H23 lung): 64000 nM | GI50 (SF-539 CNS): 3110 nM | TGI (SF-539 CNS): 36100 nM

CCn1c(-c2nonc2N)nc2cncc(C(=O)N3CCNCC3)c21
GI50 (HCC-2998 colon): > 25000 nM | TGI (HCC-2998 colon): > 25000 nM | GI50 (SK-OV-3 ovarian): > 25000 nM | TGI (SK-OV-3 ovarian): > 25000 nM | GI50 (SW-620 colon): > 25000 nM | TGI (SW-620 colon): > 25000 nM | GI50 (PC-3 prostate): > 25000 nM | TGI (PC-3 prostate): > 25000 nM | GI50 (ACHN renal): > 25000 nM | TGI (ACHN renal): > 25000 nM | GI50 (SK-MEL-2 melanoma): > 25000 nM | TGI (SK-MEL-2 melanoma): > 25000 nM | GI50 (SR leukemia): > 25000 nM | TGI (SR leukemia): > 25000 nM | GI50 (BT-549 breast): > 25000 nM | TGI (BT-549 breast): > 25000 nM | GI50 (NCI-H23 lung): > 25000 nM | TGI (NCI-H23 lung): > 25000 nM | GI50 (SF-539 CNS): > 25000 nM | TGI (SF-539 CNS): > 25000 nM

CN(C)CCNC(=O)c1cccn2c(=O)c3cc4ccccc4cc3nc12
GI50 (HCC-2998 colon): 241 nM | TGI (HCC-2998 colon): 1060 nM | GI50 (SK-OV-3 ovarian): 235 nM | TGI (SK-OV-3 ovarian): 22800 nM | GI50 (SW-620 colon): 51.5 nM | TGI (SW-620 colon): 2080 nM | GI50 (PC-3 prostate): 194 nM | TGI (PC-3 prostate): > 22000 nM | GI50 (ACHN renal): 42.2 nM | TGI (ACHN renal): > 36400 nM | GI50 (SK-MEL-2 melanoma): 203 nM | TGI (SK-MEL-2 melanoma): 1320 nM | GI50 (SR leukemia): 45.7 nM | TGI (SR leukemia): > 100000 nM | GI50 (BT-549 breast): 680 nM | TGI (BT-549 breast): 2830 nM | GI50 (NCI-H23 lung): 165 nM | TGI (NCI-H23 lung): 1010 nM | GI50 (SF-539 CNS): 161 nM | TGI (SF-539 CNS): 1600 nM

CCN(CC)CCOc1ccc(C(=C(C)c2ccc(Cl)cc2)c2ccc(OCCN(CC)CC)cc2)cc1
GI50 (HCC-2998 colon): 574 nM | TGI (HCC-2998 colon): 1060 nM | GI50 (SK-OV-3 ovarian): 1220 nM | TGI (SK-OV-3 ovarian): 4110 nM | GI50 (SW-620 colon): 556 nM | TGI (SW-620 colon): 1100 nM | GI50 (PC-3 prostate): 630 nM | TGI (PC-3 prostate): 1360 nM | GI50 (ACHN renal): 614 nM | TGI (ACHN renal): 1150 nM | GI50 (SK-MEL-2 melanoma): 661 nM | TGI (SK-MEL-2 melanoma): 1320 nM | GI50 (SR leukemia): 484 nM | TGI (SR leukemia): 1250 nM | GI50 (BT-549 breast): 1330 nM | TGI (BT-549 breast): 4220 nM | GI50 (NCI-H23 lung): 1880 nM | TGI (NCI-H23 lung): 6410 nM | GI50 (SF-539 CNS): 590 nM | TGI (SF-539 CNS): 1100 nM
